Experimental data as given in patent US20200347039A1, “CRYSTAL FORM OF RENAL OUTER MEDULLARY POTASSIUM CHANNEL INHIBITOR AND PREPARATION METHOD THEREOF” (JIANGSU HENGRUI MEDICINE CO., LTD., priority 2017, published 2020).

Assay: Pharmacokinetic experiment in SD rats after gavage (LC/MS/MS plasma concentration)
Type: in vivo
Settings: for AUClast: SD rat experiment (5 mg/kg)
[1] = SD rats, po 5.0 mg/kg, suspension in 0.5% CMC-Na
[2] = both sexes, rat, plasma, SD rats, po 5.0 mg/kg, suspension in 0.5% CMC-Na

| AUClast [ng·h/mL] | T1/2 [1] [h] | Vz/F_obs [1] [L/kg] | AUC(0-t) [2] [ng·h/mL] | CL/F [2] [mL/min/kg] | half-life [2] [h] | Vd/F (both sexes, rat, plasma, SD rats, po 5.0 mg/kg, suspension in 0.5% CMC-Na, read-out: Vz/F_obs) [L/kg] | Structure (SMILES) |
| --- | --- | --- | --- | --- | --- | --- | --- |
| 9283 | 3.62 | 3.019 | 9280 | – | – | – | COc1cc(C(=O)NC2CCN(C[C@H](O)c3ccc4c(c3C)COC4=O)CC2)ncc1C#N [free state] |
| 12618 | – | – | 12600 | 6.7 | 4.21 | 2.45 | COc1cc(C(=O)NC2CCN(C[C@H](O)c3ccc4c(c3C)COC4=O)CC2)ncc1C#N.O=C(O)C(O)C(O)C(=O)O [Crystal form III, (R)-5-cyano-N-(1-(2-hydroxy-2-(4-methyl-1-carbonyl-1,3-dihydroisobenzofuran-5-yl)ethyl)piperidin-4-yl)-4-methoxypyridinecarboxamide tartrate] |
